Experimental data from patent US11498899B2, “Nitrone herbicides” (FMC Corporation, priority 2016, dated 2022).

Key:
[1] = system: barnyardgrass (Echinochloa crus-galli); test: Test B flooded paddy test, visual rating 0-100; conditions: Flood, 250 g ai/ha, applied to paddy water, rated after 13 to 15 days
[2] = system: ducksalad (Heteranthera limosa); test: Test B flooded paddy test, visual rating 0-100; conditions: Flood, 250 g ai/ha, applied to paddy water, rated after 13 to 15 days
kochia (Kochia scoparia) [3] = test: Test A preemergence, visual injury rating 0-100; format: in vivo
[4] = system: pigweed (Amaranthus retroflexus); test: Test A preemergence, visual injury rating 0-100; format: in vivo
[5] = system: ragweed (common ragweed, Ambrosia elatior); test: Test A preemergence, visual injury rating 0-100; format: in vivo
[6] = system: foxtail, giant (giant foxtail, Setaria faberii); test: Test A preemergence, visual injury rating 0-100; format: in vivo
[7] = system: ryegrass, Italian (Italian ryegrass, Lolium multiflorum); test: Test A preemergence, visual injury rating 0-100; format: in vivo
[8] = system: wheat (Triticum aestivum); test: Test A postemergence, visual injury rating 0-100; format: in vivo; conditions: 0 to 100 scale
kochia (Kochia scoparia) [9] = test: Test A postemergence, visual injury rating 0-100; format: in vivo; conditions: 0 to 100 scale
[10] = system: barnyardgrass (Echinochloa crus-galli); test: Test A postemergence, visual injury rating 0-100; format: in vivo; conditions: 0 to 100 scale
[11] = system: pigweed (Amaranthus retroflexus); test: Test A postemergence, visual injury rating 0-100; format: in vivo; conditions: 0 to 100 scale
[12] = system: ragweed (common ragweed, Ambrosia elatior); test: Test A postemergence, visual injury rating 0-100; format: in vivo; conditions: 0 to 100 scale
[13] = system: galium (catchweed bedstraw, Galium aparine); test: Test A postemergence, visual injury rating 0-100; format: in vivo; conditions: 0 to 100 scale
[14] = system: blackgrass (Alopecurus myosuroides); test: Test A postemergence, visual injury rating 0-100; format: in vivo; conditions: 0 to 100 scale
corn (Zea mays) = test: Test A postemergence, visual injury rating 0-100; format: in vivo; conditions: 0 to 100 scale
[15] = system: foxtail, giant (giant foxtail, Setaria faberii); test: Test A postemergence, visual injury rating 0-100; format: in vivo; conditions: 0 to 100 scale
[16] = system: ryegrass, Italian (Italian ryegrass, Lolium multiflorum); test: Test A postemergence, visual injury rating 0-100; format: in vivo; conditions: 0 to 100 scale
[17] = system: barnyardgrass (Echinochloa crus-galli); test: Test A preemergence, visual injury rating 0-100 (0 no effect, 100 complete control); format: in vivo
rice (Oryza sativa) = test: Test B flooded paddy test, visual rating 0-100 (0 no effect, 100 complete control); conditions: Flood, 250 g ai/ha, applied to paddy water, rated after 13 to 15 days

| SMILES | Barnyardgrass plant response rating (0 to 100 scale) [1] | Ducksalad plant response rating (0 to 100 scale) [2] | Kochia plant response rating (0 to 100 scale) (kochia (Kochia scoparia) [3]; 125 g ai/ha) | Kochia plant response rating (0 to 100 scale) (kochia (Kochia scoparia) [3]; 500 g ai/ha) | Pigweed plant response rating (0 to 100 scale) ([4]; 125 g ai/ha) | Pigweed plant response rating (0 to 100 scale) ([4]; 500 g ai/ha) | Ragweed plant response rating (0 to 100 scale) ([5]; 125 g ai/ha) | Ragweed plant response rating (0 to 100 scale) ([5]; 500 g ai/ha) | Foxtail, Giant plant response rating (0 to 100 scale) ([6]; 125 g ai/ha) | Foxtail, Giant plant response rating (0 to 100 scale) ([6]; 500 g ai/ha) | Ryegrass, Italian plant response rating (0 to 100 scale) ([7]; 125 g ai/ha) | Ryegrass, Italian plant response rating (0 to 100 scale) ([7]; 500 g ai/ha) | Wheat plant response rating ([8]; 125 g ai/ha) | Wheat plant response rating ([8]; 500 g ai/ha) | Kochia plant response rating (kochia (Kochia scoparia) [9]; 125 g ai/ha) | Kochia plant response rating (kochia (Kochia scoparia) [9]; 500 g ai/ha) | Barnyardgrass plant response rating ([10]; 125 g ai/ha) | Barnyardgrass plant response rating ([10]; 500 g ai/ha) | Pigweed plant response rating ([11]; 125 g ai/ha) | Pigweed plant response rating ([11]; 500 g ai/ha) | also measured |
| --- | --- | --- | --- | --- | --- | --- | --- | --- | --- | --- | --- | --- | --- | --- | --- | --- | --- | --- | --- | --- | --- |
| CC1=[N+]([O-])C(C(=O)Nc2cccc(F)c2F)C(c2cc(C)cc(C(F)(F)F)c2)C1 (centres unmarked) [Compound 92] | 70 | 25 | 0 | 50 | 30 | 80 | 0 | 70 | 90 | 90 | 80 | 90 | 70 | 80 | 30 | 70 | 70 | 90 | 20 | 60 | Ragweed plant response rating ([12]; 125 g ai/ha): 0; Ragweed plant response rating ([12]; 500 g ai/ha): 70; Galium plant response rating ([13]; 125 g ai/ha): 50; Galium plant response rating ([13]; 500 g ai/ha): 60; Blackgrass plant response rating ([14]; 125 g ai/ha): 70; Blackgrass plant response rating ([14]; 500 g ai/ha): 70; Corn plant response rating (corn (Zea mays); 125 g ai/ha): 70; Corn plant response rating (corn (Zea mays); 500 g ai/ha): 80; Foxtail, Giant plant response rating ([15]; 125 g ai/ha): 70; Foxtail, Giant plant response rating ([15]; 500 g ai/ha): 90; Ryegrass, Italian plant response rating ([16]; 125 g ai/ha): 60; Ryegrass, Italian plant response rating ([16]; 500 g ai/ha): 70; Barnyardgrass plant response rating (0 to 100 scale) ([17]; 125 g ai/ha): 90; Barnyardgrass plant response rating (0 to 100 scale) ([17]; 500 g ai/ha): 90; Rice plant response rating (0 to 100 scale) (rice (Oryza sativa)): 0 |
| CC1=[N+]([O-])C(C(=O)Nc2cccc(F)c2F)C(c2cc(C)cc(Cl)c2)C1 (centres unmarked) [Compound 94] | 60 | 100 | 10 | 60 | 20 | 80 | 30 | 90 | 90 | 90 | 60 | 80 | 40 | 80 | 20 | 30 | 80 | 90 | 20 | 70 | Ragweed plant response rating ([12]; 125 g ai/ha): 20; Ragweed plant response rating ([12]; 500 g ai/ha): 70; Galium plant response rating ([13]; 125 g ai/ha): 20; Galium plant response rating ([13]; 500 g ai/ha): 60; Blackgrass plant response rating ([14]; 125 g ai/ha): 70; Blackgrass plant response rating ([14]; 500 g ai/ha): 90; Corn plant response rating (corn (Zea mays); 125 g ai/ha): 70; Corn plant response rating (corn (Zea mays); 500 g ai/ha): 80; Foxtail, Giant plant response rating ([15]; 125 g ai/ha): 80; Foxtail, Giant plant response rating ([15]; 500 g ai/ha): 90; Ryegrass, Italian plant response rating ([16]; 125 g ai/ha): 60; Ryegrass, Italian plant response rating ([16]; 500 g ai/ha): 90; Barnyardgrass plant response rating (0 to 100 scale) ([17]; 125 g ai/ha): 90; Barnyardgrass plant response rating (0 to 100 scale) ([17]; 500 g ai/ha): 90; Rice plant response rating (0 to 100 scale) (rice (Oryza sativa)): 0 |
| CC1=[N+]([O-])C(C(=O)Nc2cccc(F)c2F)C(c2cc(F)c(F)c(F)c2)C1 (centres unmarked) [Compound 95] | 80 | 100 | 0 | 70 | 20 | 80 | 20 | 80 | 90 | 100 | 30 | 90 | 10 | 60 | 30 | 50 | 70 | 80 | 0 | 20 | Ragweed plant response rating ([12]; 125 g ai/ha): 0; Ragweed plant response rating ([12]; 500 g ai/ha): 20; Galium plant response rating ([13]; 125 g ai/ha): 0; Galium plant response rating ([13]; 500 g ai/ha): 50; Blackgrass plant response rating ([14]; 125 g ai/ha): 60; Blackgrass plant response rating ([14]; 500 g ai/ha): 70; Corn plant response rating (corn (Zea mays); 125 g ai/ha): 0; Corn plant response rating (corn (Zea mays); 500 g ai/ha): 50; Foxtail, Giant plant response rating ([15]; 125 g ai/ha): 80; Foxtail, Giant plant response rating ([15]; 500 g ai/ha): 90; Ryegrass, Italian plant response rating ([16]; 125 g ai/ha): 40; Ryegrass, Italian plant response rating ([16]; 500 g ai/ha): 70; Barnyardgrass plant response rating (0 to 100 scale) ([17]; 125 g ai/ha): 90; Barnyardgrass plant response rating (0 to 100 scale) ([17]; 500 g ai/ha): 90; Rice plant response rating (0 to 100 scale) (rice (Oryza sativa)): 0 |
| COc1cc(OC)cc(C2CC(C)=[N+]([O-])C2C(=O)Nc2cccc(F)c2F)c1 (centres unmarked) [Compound 96] | 0 | 0 | 0 | 40 | 0 | 10 | 0 | 0 | 90 | 90 | 0 | 0 | 0 | 10 | 0 | 0 | 60 | 90 | 0 | 0 | Ragweed plant response rating ([12]; 125 g ai/ha): 0; Ragweed plant response rating ([12]; 500 g ai/ha): 30; Galium plant response rating ([13]; 125 g ai/ha): 0; Galium plant response rating ([13]; 500 g ai/ha): 20; Blackgrass plant response rating ([14]; 125 g ai/ha): 40; Blackgrass plant response rating ([14]; 500 g ai/ha): 90; Corn plant response rating (corn (Zea mays); 125 g ai/ha): 10; Corn plant response rating (corn (Zea mays); 500 g ai/ha): 70; Foxtail, Giant plant response rating ([15]; 125 g ai/ha): 40; Foxtail, Giant plant response rating ([15]; 500 g ai/ha): 90; Ryegrass, Italian plant response rating ([16]; 125 g ai/ha): 0; Ryegrass, Italian plant response rating ([16]; 500 g ai/ha): 60; Barnyardgrass plant response rating (0 to 100 scale) ([17]; 125 g ai/ha): 90; Barnyardgrass plant response rating (0 to 100 scale) ([17]; 500 g ai/ha): 100; Rice plant response rating (0 to 100 scale) (rice (Oryza sativa)): 0 |
